Experimental data taken from US7973069B2 (PTC Therapeutics, Inc., priority 2004, dated 2011).
Values joined by “and” are separate entries in the source; they are usually repeats but may differ in a detail not shown here. Identical values can stand only once.

Test system: HCV replicon
Format: cell-based
Settings: not given

SMILES | IC50
CCCOc1ccc2c(C#N)c(-c3ccc(NC(=O)OC(C)C)cc3)n(C(C)C)c2c1 [Compound 1204] | < 0.5 µM
CCCNC(=O)Nc1ccc(-c2c(C#N)c3cc(OC)ccc3n2C2CCC2)cc1 [Compound 1162] | 0.5 to 2 µM
CCNC(=O)Nc1ccc(-c2c(C#N)c3ccc(OCCCN4CCOCC4)cc3n2CC)cc1 [Compound 1124] | < 0.5 µM and 0.5 to 2 µM
N#Cc1c(-c2ccc(N3CCCS3(=O)=O)cc2)n(CCF)c2cc(OC(F)(F)F)ccc12 [Compound 905] | < 0.5 µM
CCCS(=O)(=O)Nc1ccc(-c2c(C#N)c3ccc(OC)cc3n2CC)cc1C [Compound 961] | 0.5 to 2 µM
CCOc1ccc2c(C#N)c(-c3ccc(NC(=O)OCC4CCC4)cc3)n(C3CCC3)c2c1 [Compound 1158] | < 0.5 µM
CCn1c(-c2ccc(NS(=O)(=O)CC)c(C)c2)c(C#N)c2ccc(OC)cc21 [Compound 960] | 0.5 to 2 µM
CCn1c(-c2ccc(NS(=O)(=O)C3CC3)cc2)c(C#N)c2ccc(OC3CC3)cc21 [Compound 1047] | < 0.5 µM
CC(C)n1c(-c2ccc(NS(=O)(=O)C3CC3)cc2)c(C#N)c2ccc(OC(F)F)cc21 [Compound 868] | < 0.5 µM
CCN(C)CCOc1ccc2c(C#N)c(-c3ccc(NC(=O)OC(C)C)cc3)n(C3CCC3)c2c1 [Compound 1270] | < 0.5 µM
CCCn1c(-c2ccc(NS(=O)(=O)C(C)C)cc2)c(C#N)c2cc(OC)ccc21 [Compound 997] | 0.5 to 2 µM
Cn1c(-c2ccc(N3CCCS3(=O)=O)cc2)c(C#N)c2ccc(OC(F)(F)F)cc21 [Compound 902] | 0.5 to 2 µM
CCn1c(-c2ccc(NC(=O)OC)cc2)c(C#N)c2ccc(OCCCCl)cc21 [Compound 1029] | 0.5 to 2 µM
COCCN(C)CCOc1ccc2c(C#N)c(-c3ccc(NC(=O)OC(C)C)cc3)n(C3CCC3)c2c1 [Compound 1274] | < 0.5 µM
CCNC(=O)Nc1ccc(-c2c(C#N)c3ccc(OC(F)(F)F)cc3n2CC)cc1 [Compound 892] | 0.5 to 2 µM
CCCn1c(-c2ccc(NC(=O)NCC)cc2)c(C#N)c2ccc(OCC)cc21 [Compound 1094] | 0.5 to 2 µM
CCOc1ccc2c(C#N)c(-c3ccc(NC(=O)OC4CCCC4)nc3)n(C3CCC3)c2c1 [Compound 1145] | 0.5 to 2 µM
CCOc1ccc2c(C#N)c(-c3ccc(NC(=O)NC4CCCC4)cc3)n(C3CCC3)c2c1 [Compound 1027] | < 0.5 µM
CCCn1c(-c2ccc(NS(C)(=O)=O)cc2)c(C#N)c2cc(OC)ccc21 [Compound 995] | 0.5 to 2 µM
CCCn1c(-c2cccc(N)c2)c(C#N)c2cc(OCc3ccccc3)ccc21 [Compound 866] | 0.5 to 2 µM
CC(C)OC(=O)Nc1ccc(-c2c(C#N)c3ccc(OCCN4CCOCC4)cc3n2C2CCC2)cc1 [Compound 1271] | < 0.5 µM

SMILES | IC50
CCCCNC(=O)Nc1cccc(-c2c(C#N)c3ccc(OCCCN4CCOCC4)cc3n2CC)c1 [Compound 1067] | 0.5 to 2 µM
CCOc1ccc2c(c1)c(C#N)c(-c1ccc(NC(=O)OC(C)C3CC3)cc1)n2C1CCC1 (stereo not shown) [Compound 1295] | < 0.5 µM
CCCCOC(=O)Nc1ccc(-c2c(C#N)c3ccc(OC)cc3n2C2CCC2)cc1 [Compound 1077] | < 0.5 µM
CCOc1ccc2c(C#N)c(-c3ccc(N(CC)C(=O)OC(C)C)cc3)n(C3CC3)c2c1 [Compound 1237] | 0.5 to 2 µM
CCn1c(-c2ccc(NC(=O)OC(C)C)cc2)c(C#N)c2ccc(OCCF)cc21 [Compound 946] | < 0.5 µM
CCOc1ccc2c(C#N)c(-c3cccc(N4CCCS4(=O)=O)c3)n(CC)c2c1 [Compound 907] | 0.5 to 2 µM
CCCn1c(-c2cccc(NS(=O)(=O)CC)c2)c(C#N)c2cc(OCc3ccccc3)ccc21 [Compound 919] | 0.5 to 2 µM
N#Cc1c(-c2ccc(NC(=O)NC3CCCC3)cc2)n(C2CCC2)c2cc3c(cc12)OCO3 [Compound 1305] | < 0.5 µM
CCOc1ccc2c(C#N)c(-c3ccc(NC(=O)Oc4ccc(OC)cc4)cc3)n(C3CCC3)c2c1 [Compound 978] | 0.5 to 2 µM
CCCCNC(=O)Nc1ccc(-c2c(C#N)c3ccc(OCC)cc3n2C(C)C)cc1 [Compound 1101] | < 0.5 µM
COc1ccc2c(C#N)c(-c3ccc(NC(=O)NC4CCCC4)cc3)n(C3CCC3)c2c1 [Compound 1106] | < 0.5 µM
CC(C)OC(=O)Nc1ccc(-c2c(C#N)c3ccc(OCCF)cc3n2C2CCC2)cc1 [Compound 1174] | < 0.5 µM
COc1ccc2c(C#N)c(-c3ccc(NC(=O)C4CC4)cc3)n(CC3CC3)c2c1 [Compound 983] | 0.5 to 2 µM
CCOC(=O)Nc1ccc(-c2c(C#N)c3cc(OCc4ccccc4)ccc3n2CC)cc1 [Compound 925] | 0.5 to 2 µM
CC(C)OC(=O)Nc1ccc(-c2c(C#N)c3ccc(Oc4ncccn4)cc3n2C(C)C)cc1 [Compound 2392] | < 0.5 µM
CCOP(=O)(Nc1ccc(-c2c(C#N)c3ccc(OC)cc3n2CC)cc1)OCC [Compound 943] | 0.5 to 2 µM
CCOc1ccc2c(C#N)c(-c3ccc(NC(=O)OC4(C)CCCC4)cc3)n(C3CCC3)c2c1 [Compound 1209] | < 0.5 µM
CCCOC(=O)Nc1ccc(-c2c(C#N)c3ccc(OCC)cc3n2CC)cc1 [Compound 949] | 0.5 to 2 µM
CC(OC(=O)Nc1ccc(-c2c(C#N)c3ccc(OCCN(C)C)cc3n2C2CCC2)cc1)C1CC1 (stereo not shown) [Compound 1327] | < 0.5 µM
CCOc1ccc2c(C#N)c(-c3ccc(NC(C)=O)cc3)n(CC)c2c1 [Compound 895] | 0.5 to 2 µM
CCOc1ccc2c(C#N)c(-c3ccc(NC(=O)OC(C)C)cc3)n(C3CCCC3)c2c1 [Compound 1129] | < 0.5 µM

SMILES | IC50
CCOc1ccc2c(C#N)c(-c3ccc(N)cc3)n(C3CCC3)c2c1 [Compound 939] | 0.5 to 2 µM
CCn1c(-c2ccc(N)c(C)c2)c(C#N)c2ccc(OC)cc21 [Compound 927] | 0.5 to 2 µM
CCn1c(-c2ccc(NC(=O)N3CCCC3)cc2)c(C#N)c2ccc(OC)cc21 [Compound 1089] | 0.5 to 2 µM
CCCNC(=O)Nc1ccc(-c2c(C#N)c3ccc(OCCF)cc3n2CC)cc1 [Compound 955] | 0.5 to 2 µM and < 0.5 µM
C=CCNC(=O)Nc1ccc(-c2c(C#N)c3cc(OC)ccc3n2CC)cc1 [Compound 1013] | 0.5 to 2 µM
CCn1c(-c2ccc(NC(=O)NC(C)C)c(F)c2)c(C#N)c2ccc(OC)cc21 [Compound 911] | 0.5 to 2 µM
N#Cc1c(-c2ccc(NC(=O)NC3CCC3)cc2)n(C2CCC2)c2cc(OCC3CCCO3)ccc12 (stereo not shown) [Compound 1288] | < 0.5 µM
CCOc1ccc2c(C#N)c(-c3ccc(NC(=O)C4CC4)cc3)n(CC)c2c1 [Compound 897] | 0.5 to 2 µM
CCCOC(=O)Nc1ccc(-c2c(C#N)c3ccc(OCC)cc3n2C2CCC2)cc1 [Compound 972] | < 0.5 µM
CCCCNC(=O)Nc1ccc(-c2c(C#N)c3ccc(OC)cc3n2CC)cc1F [Compound 910] | 0.5 to 2 µM
CC(C)NC(=O)Nc1ccc(-c2c(C#N)c3cc4c(cc3n2C2CCC2)OCO4)cc1 [Compound 1303] | 0.5 to 2 µM
CCn1c(-c2ccc(NC(=O)OC)cc2)c(C#N)c2ccc(OC(F)(F)F)cc21 [Compound 886] | 0.5 to 2 µM
CCCNC(=O)Nc1ccc(-c2c(C#N)c3cc(OC)ccc3n2CCC)cc1 [Compound 1000] | 0.5 to 2 µM
CCCCS(=O)(=O)Nc1ccc(-c2c(C#N)c3ccc(OCCF)cc3n2CC)cc1 [Compound 953] | 0.5 to 2 µM
CC(C)S(=O)(=O)Nc1ccc(-c2c(C#N)c3ccc(OC(F)F)cc3n2CC2CC2)cc1 [Compound 941] | < 0.5 µM
CCCCOC(=O)Nc1ccc(-c2c(C#N)c3ccc(OC(F)F)cc3n2CC)cc1 [Compound 1133] | 0.5 to 2 µM
COc1ccc2c(C#N)c(-c3ccc(NS(=O)(=O)C4CC4)cc3)n(CC3CC3)c2c1 [Compound 982] | > 2 µM
N#Cc1c(-c2ccc(NC(=O)OC3CCC3)cc2)n(C2CCC2)c2cc(OCC3CCCO3)ccc12 (stereo not shown) [Compound 1282] | < 0.5 µM
CCn1c(-c2cccc(NC(=O)NCCCl)c2)c(C#N)c2ccc(OCCCN3CCOCC3)cc21 [Compound 1036] | 0.5 to 2 µM
CCOc1ccc2c(C#N)c(-c3ccc(NC(=O)OCCF)cc3)n(CC)c2c1 [Compound 950] | 0.5 to 2 µM
CCNC(=O)Nc1cccc(-c2c(C#N)c3ccc(OCCCN4CCOCC4)cc3n2CC)c1 [Compound 1043] | 0.5 to 2 µM

Test system: wild-type poliovirus
Format: cell-based
Settings: 1 μM compound; HeLa cells infected with wild-type poliovirus at MOI 0.1, treated one day; CPE score

SMILES | WT-PV CPE (1 μM)*
CCn1c(-c2ccc(OC)cc2)c(C#N)c2ccc(OC)cc21 [Compound 19] | 1
COc1ccc(-n2cc(C#N)c3ccc(OC)cc32)cc1 [Compound 4] | 1
CCn1cc(C#N)c2ccc(OC(C)C)cc21 [Compound 10] | 2
COc1ccc2c(C#N)c(C)n(-c3ccc4c(c3)OCO4)c2c1 [Compound 24] | 2

Same assay, conditions: 10 μM compound; HeLa cells infected with wild-type poliovirus at MOI 0.1, treated one day; CPE score

SMILES | WT-PV CPE (10 μM)*
CCn1c(-c2ccc(OC)cc2)c(C#N)c2ccc(OC)cc21 [Compound 19] | 2
COc1ccc(-n2cc(C#N)c3ccc(OC)cc32)cc1 [Compound 4] | 2
CCn1cc(C#N)c2ccc(OC(C)C)cc21 [Compound 10] | 2
COc1ccc2c(C#N)c(C)n(-c3ccc4c(c3)OCO4)c2c1 [Compound 24] | 2

Same assay, conditions: 100 μM compound; HeLa cells infected with wild-type poliovirus at MOI 0.1, treated one day; CPE score

SMILES | WT-PV CPE (100 μM)*
CCn1c(-c2ccc(OC)cc2)c(C#N)c2ccc(OC)cc21 [Compound 19] | 3
COc1ccc(-n2cc(C#N)c3ccc(OC)cc32)cc1 [Compound 4] | 3
CCn1cc(C#N)c2ccc(OC(C)C)cc21 [Compound 10] | 3
COc1ccc2c(C#N)c(C)n(-c3ccc4c(c3)OCO4)c2c1 [Compound 24] | 3

Test system: not given
Settings: not given

SMILES | melting point [°C]
C[C@@H](OC(=O)Nc1ccc(-c2c(C#N)c3ccc(Oc4ncccn4)cc3n2C2CCC2)cc1)C1CC1 [Compound 2210, (R)-{4-[3-cyano-1-cyclobutyl-6-(pyrimidin-2-yloxy)-1H-indol-2-yl]-phenyl}carbamic acid 1-cyclopropyl-ethyl ester] | 194 to 196
CC(C)NS(=O)(=O)Nc1ccc(-c2c(C#N)c3ccc(Oc4ncccn4)cc3n2C2CCC2)cc1 [Compound 2263] | 223 to 224
CC(C)OC(=O)Nc1ccc(-c2c(C#N)c3ccc(Oc4ncccn4)cc3n2C2CCC2)cc1Cl [Compound 2339, {2-chloro-4-[3-cyano-1-cyclobutyl-6-(pyrimidin-2-yloxy)-1H-indol-2-yl]-phenyl}-carbamic acid isopropyl ester] | 165 to 165.5
C[C@@H](OC(=O)Nc1ccc(-c2c(C#N)c3ccc(-c4ccccn4)cc3n2C2CCC2)cc1)C1CC1 [Compound 2417, [4-(3-cyano-1-cyclobutyl-6-pyridin-2-yl-1H-indol-2-yl)-phenyl]-carbamic acid 1-cyclopropyl-ethyl ester] | 118 to 120
